The record followed here is patent publication US20220408724A1, “METHOD FOR CONTROLLING METABOLISM OF BRANCHED FATTY ACID” (KAO CORPORATION, priority 2019, published 2022).

Common to all, as to format: cell-based
In test [1] the test system is Moraxella osloensis. Description: Examination example: measurement of viable bacterial count. Here is the method: After culture on fabric prepared in the same manner as in the above (1), 9 mL of an LP diluent (manufactured by NIHON PHARMACEUTICAL CO., LTD.) was added, and the extraction of the bacteria was carried out under ultrasound for 10 minutes. The extraction liquid was poured and mixed to an SCD-LP agar medium (NIHON PHARMACEUTICAL CO., LTD.), and culture was thereafter carried out at 37° C.; for a day. The number of colonies obtained on each piece of the fabric was counted, and a common logarithm value thereof was measured as the viable bacterial count. […] In addition, the […], the more the viable bacterial count of the microorganism is maintained.

Test [2] has as its system Moraxella osloensis. In words: Examination example: suppression of metabolism of 14-methylhexadecanoic acid, components (a) and (b)/(b′). The following applies: for Metabolism of branched fatty acid: Residual amount (μg/fabric g): 14-methylhexadecanoic acid. Here is the method:
The suppression of metabolism of 14-methylhexadecanoic acid by bacteria of the genus Moraxella and the suppression of a metabolite therefrom were tested in the following manner.
Moraxella osloensis (strain isolated from clothing) was precultured on an SCD-LP agar medium (NIHON PHARMACEUTICAL CO., LTD.) at 37° C.; for 24 hours, and a bacterial suspension of 10^6 (CFU/ml) was prepared by using an NB liquid medium (Difco) diluted to 1/20 with ion exchange water.
A methanol solution in which 14-methylhexadecanoic acid (SIGMA-ALDRICH) was dissolved was added dropwise to 3 cm×3 cm pieces of sterilized plain-weave cotton fabric to make it adhered to the fabric. The adhesion amount of 14-methylhexadecanoic acid was set to 10 μg per piece of the plain-weave cotton fabric (100 μg/fabric g). Further, a methanol solution in which component (a) was dissolved, and then, a methanol solution in which component (b) or (b′) was dissolved were added dropwise to the fabric to which 14-methylhexadecanoic acid adhered, and it was thereafter dried for an hour. This fabric was placed in a sterilized screw tube bottle No. 3 (Maruemu Corporation) and 100 μl of the bacterial suspension was inoculated thereto, and culture was carried out under 37° C.; conditions for 21 hours.
3 ml of methanol was added to the screw tube bottle after culture, and extraction was carried out under ultrasonic irradiation for 30 minutes (20° C.). The extraction liquid was mixed with a (trimethylsilyl)diazomethane hexane solution (FUJIFILM Wako Pure Chemical Corporation) at 9:1 (volume ratio) and left overnight under room temperature and dark place conditions. After that, 14-methylhexadecanoic acid remaining on the fabric was quantified by GC. The quantification conditions for GC are as follows. • GC: Agilent 6890N • GC column: Agilent DB-1 30 m×250 μm×0.25 μm • Temperature rise condition: 50° C. (held for 3 minutes)-(10° C./min)-300° C. (held for 5 minutes) • Sample injection volume: 1 μl • Split ratio: 1:12 • Detector: FID
The residual amount of 14-methylhexadecanoic acid after culture on the fabric to which each metabolism controlling agent was added was quantified, and the ratio of the residual amount to that of 14-methylhexadecanoic acid in the case of adding no metabolism controlling agent (control) was calculated as a metabolism suppression rate (%). The higher a numerical value thereof is, the more the metabolism is suppressed. Note that the metabolism suppression rate was determined by the following formula:
Metabolism suppression rate(%)=[1−(100−A)/(100−B)]×100 • A: residual amount of 14-methylhexadecanoic acid of reference or examination example (μg/fabric g) • B: residual amount of 14-methylhexadecanoic acid of control (μg/fabric g)
A control is an example in which none of component (a), (b) or (b′) is added, and references 1-1, 2-1, 3-1 and 4-1 qualify as this (the same applies hereinafter). In these controls, the metabolism suppression rate is 0′.

For test [3], the system named is Moraxella osloensis. Description: Examination example: suppression of metabolite 4-methyl-3-hexenoic acid, components (a) and (b)/(b′). Here is the method: After culture on fabric prepared in the same manner as in the above (1), 3 ml of methanol was added, and extraction was carried out under ultrasonic irradiation for 30 minutes (20° C.). The extraction liquid was mixed with (a 1000 ppm methanol solution of) an ADAM reagent of Funakoshi Co., Ltd. at 1:1 (volume ratio) and left overnight under room temperature and dark place conditions. After that, 4-methyl-3-hexenoic acid as a metabolite from 14-methylhexadecanoic acid was quantified by HPLC. The quantification conditions are as follows.
Eluent: acetonitrile 61% (v/v), water 39% (v/v) Column temperature: 40° C. Sample injection volume: 10 μL Flow rate: 1.0 mL/min
The production amount of 4-methyl-3-hexenoic acid after culture on the fabric to which the metabolism controlling agent was added was quantified, and the ratio of the production amount to that of 4-methyl-3-hexenoic acid in the case of adding no metabolism controlling agent (control) was calculated as a metabolite suppression rate (%). The higher a numerical value thereof is, the more the metabolism is suppressed. Note that the metabolite suppression rate was determined by the following formula. In references 1-1, 2-1, 3-1 and 4-1, which are controls, the metabolite suppression rate is 0%.
Metabolite suppression rate(%)=100×[(D−C)/D] • C: production amount of metabolite of reference or examination example (μg/fabric g) • D: production amount of metabolite of control (μg/fabric g)

SMILES strings stand for the structures.

For `N#CC(C#N)=NNc1cccc(Cl)c1` [CCCP, carbonylcyanide-m-chlorophenylhydrazone], the “Viable bacterial count (Log (cfu/fabric cm^2))” value in test [1] (single agent 2 μg/fabric g) is reported as 6.1 Log (cfu/fabric cm^2); in test [1] (single agent 5 μg/fabric g), 5.5 Log (cfu/fabric cm^2). For the same compound, the “Metabolism of branched fatty acid: Residual amount (μg/fabric g)” value (“Metabolism … Residual amount (μg/fabric g)” for short) in test [2] (single agent 2 μg/fabric g) is 44 μg/fabric g; in test [2] (single agent 5 μg/fabric g), 56 μg/fabric g. The “Metabolism of branched fatty acid: Metabolism suppression rate (%)” value (“Metabolism … Metabolism suppression rate (%)” below) in test [2] (single agent 2 μg/fabric g) came to 8%; in test [2] (single agent 5 μg/fabric g) it was 28%. The “Product of metabolism of branched fatty acid: Metabolite suppression rate (%)” value (“Product of metabolism … (%)” for short) in test [3] (single agent 2 μg/fabric g) was 25%; in test [3] (single agent 5 μg/fabric g), 36%. Also, the “Product of metabolism of branched fatty acid: Production amount (μg/fabric g)” value (“Product of metabolism … (μg/fabric g)” for short) in test [3] (single agent 2 μg/fabric g) was found to be 3.3 μg/fabric g; in test [3] (single agent 5 μg/fabric g), 2.8 μg/fabric g.

`C/C=C/C/C=C/CCC(=O)[C@H]1O[C@H]1C(N)=O` [Cerulenin, [2R,3S]-2,3-epoxy-4-oxo-7,10-trans,trans-dodecanoic acid amide]: the “Viable bacterial count (Log (cfu/fabric cm^2))” value in test [1] (single agent 5 μg/fabric g) is reported as 6.1 Log (cfu/fabric cm^2); in test [1] (single agent 10 μg/fabric g) it was 6.3 Log (cfu/fabric cm^2); in test [1] (single agent 20 μg/fabric g), 6.3 Log (cfu/fabric cm^2). Besides, the “Metabolism … Residual amount (μg/fabric g)” value in test [2] (single agent 5 μg/fabric g) is on record as 39 μg/fabric g; in test [2] (single agent 10 μg/fabric g), 41 μg/fabric g; in test [2] (single agent 20 μg/fabric g), 48 μg/fabric g. Moreover, the results for the “Metabolism … Metabolism suppression rate (%)” value in test [2] (single agent 5 μg/fabric g), in test [2] (single agent 10 μg/fabric g) and in test [2] (single agent 20 μg/fabric g) were 0%, 3% and 15%, respectively. The entries for the “Product of metabolism … (%)” value in test [3] (single agent 5 μg/fabric g), in test [3] (single agent 10 μg/fabric g) and in test [3] (single agent 20 μg/fabric g) were 2%, 9% and 11%, respectively. The “Product of metabolism … (μg/fabric g)” value amounted to 4.3 μg/fabric g in test [3] (single agent 5 μg/fabric g), 4.0 μg/fabric g in test [3] (single agent 10 μg/fabric g) and 3.9 μg/fabric g in test [3] (single agent 20 μg/fabric g).

Turning to `Oc1cc(Cl)ccc1Oc1ccc(Cl)cc1` [Diclosan, 4-4′-dichloro-2-hydroxydiphenyl ether], the “Viable bacterial count (Log (cfu/fabric cm^2))” value is listed as 6.2 Log (cfu/fabric cm^2) in test [1] (single agent 1 μg/fabric g), 6.0 Log (cfu/fabric cm^2) in test [1] (single agent 2 μg/fabric g) and 5.1 Log (cfu/fabric cm^2) in test [1] (single agent 5 μg/fabric g). Besides, the “Metabolism … Residual amount (μg/fabric g)” value was 43 μg/fabric g in test [2] (single agent 1 μg/fabric g), 46 μg/fabric g in test [2] (single agent 2 μg/fabric g) and 56 μg/fabric g in test [2] (single agent 5 μg/fabric g). In addition, the figures for the “Metabolism … Metabolism suppression rate (%)” value in test [2] (single agent 1 μg/fabric g), in test [2] (single agent 2 μg/fabric g) and in test [2] (single agent 5 μg/fabric g) were 7%, 11% and 27%, respectively. Further, the “Product of metabolism … (%)” value is 5% in test [3] (single agent 1 μg/fabric g), 14% in test [3] (single agent 2 μg/fabric g) and 41% in test [3] (single agent 5 μg/fabric g). Further, the “Product of metabolism … (μg/fabric g)” value in test [3] (single agent 1 μg/fabric g) is 4.2 μg/fabric g; in test [3] (single agent 2 μg/fabric g), 3.8 μg/fabric g; in test [3] (single agent 5 μg/fabric g) it was 2.6 μg/fabric g.

Turning to `Oc1cc(Cl)ccc1Oc1ccc(Cl)cc1Cl` [Triclosan, 2,4,4′-trichloro-2′-hydroxydiphenyl ether], the “Viable bacterial count (Log (cfu/fabric cm^2))” value in test [1] (single agent 0.5 μg/fabric g) is on record as 6.2 Log (cfu/fabric cm^2); in test [1] (single agent 1 μg/fabric g) it was 6.2 Log (cfu/fabric cm^2); in test [1] (single agent 2 μg/fabric g), 6.0 Log (cfu/fabric cm^2). Moreover, the entries for the “Metabolism … Residual amount (μg/fabric g)” value in test [2] (single agent 0.5 μg/fabric g), in test [2] (single agent 1 μg/fabric g) and in test [2] (single agent 2 μg/fabric g) were 43 μg/fabric g, 38 μg/fabric g and 44 μg/fabric g, respectively. The “Metabolism … Metabolism suppression rate (%)” value in test [2] (single agent 0.5 μg/fabric g) is 6%; in test [2] (single agent 1 μg/fabric g), −2%; in test [2] (single agent 2 μg/fabric g), 8%. Also, the “Product of metabolism … (%)” value is listed as 5% in test [3] (single agent 1 μg/fabric g) and 7% in test [3] (single agent 2 μg/fabric g). For the same compound, the “Product of metabolism … (μg/fabric g)” value in test [3] (single agent 1 μg/fabric g) is on record as 4.2 μg/fabric g; in test [3] (single agent 2 μg/fabric g), 4.1 μg/fabric g.
